Test results reported in article PMC5569017, “Development of a novel immunoassay to detect interactions with the transactivation domain of p53: application to screening of new drugs” (Scientific Reports, 2017).
Like-named read-outs stand apart in the source and are kept apart here. Values belong to the compound of their own block, whether it stands above or below them.

Experiments:
p53/MDM2 interaction = details: cited from earlier work
p53-MDM2 interaction = molecular target: T1, p53-MDM2 interaction (Homo sapiens, UniProt Q00987); test: AlphaLISA inhibitor screening assay, p53-MDM2 (cellular extracts with p53-His and MDM2-GST); assay type: biochemical; details: 33.3 μg/well MDM2-GST extract, Fig. 4; for concentration above which the AlphaLISA signal reached a plateau: dose-response, 1:10 serial dilutions
T1 construct: made in house; host or cells: MDM2-GST: Escherichia coli BL21 (DE3), crude extract; p53-His: HEK293T cells transfected with pEnter-p53, crude lysate

MDM2 = molecular target: MDM2; design: method as in PMID 27764791; details: read-out: Ki, MDM2 antagonist; cited from earlier work

T1 sequence (Q00987 whole entry): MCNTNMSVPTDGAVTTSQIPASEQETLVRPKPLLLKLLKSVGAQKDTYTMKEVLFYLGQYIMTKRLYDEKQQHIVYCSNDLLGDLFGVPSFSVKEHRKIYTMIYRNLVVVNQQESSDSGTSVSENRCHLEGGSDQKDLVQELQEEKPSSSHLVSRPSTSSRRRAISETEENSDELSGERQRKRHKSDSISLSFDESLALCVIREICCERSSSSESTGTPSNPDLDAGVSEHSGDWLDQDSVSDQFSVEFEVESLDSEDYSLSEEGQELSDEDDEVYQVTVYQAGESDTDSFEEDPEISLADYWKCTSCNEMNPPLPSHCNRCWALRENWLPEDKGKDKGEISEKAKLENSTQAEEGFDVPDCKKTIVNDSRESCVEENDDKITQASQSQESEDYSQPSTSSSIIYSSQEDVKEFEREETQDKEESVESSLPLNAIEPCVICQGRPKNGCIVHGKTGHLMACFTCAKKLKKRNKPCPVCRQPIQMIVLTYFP

course of AlphaLISA response signal with increasing inhibitor dose (p53-MDM2 interaction; serial dilutions starting with 20 μM): continued to rise rapidly
SMILES: COc1cc(C(=O)O)ccc1NC(=O)[C@@H]1N[C@@H](CC(C)(C)C)[C@](C#N)(c2ccc(Cl)cc2F)[C@H]1c1cccc(Cl)c1F [Idasanutlin]
IC50 (p53/MDM2 interaction; read-out: IC50, p53-MDM2 inhibitor): 6 nM

SMILES: CC(C)(C)C[C@@H]1N[C@@H](C(=O)N[C@H]2CC[C@H](O)CC2)[C@H](c2cccc(Cl)c2F)[C@]12C(=O)Nc1cc(Cl)ccc12 [MI-773]
Ki (MDM2): 0.88 nM
concentration above which the AlphaLISA signal reached a plateau (p53-MDM2 interaction): exceeded 1 μΜ

concentration above which the AlphaLISA signal reached a plateau (p53-MDM2 interaction): exceeded 1 μΜ
SMILES: CCOc1cc(C(C)(C)C)ccc1C1=N[C@@](C)(c2ccc(Cl)cc2)[C@@](C)(c2ccc(Cl)cc2)N1C(=O)N1CCN(CCCS(C)(=O)=O)CC1 [RG-7112]
